Molecules are shown by their SMILES. Where “and” joins values, the source holds several entries; their conditions need not be identical. Equal values may be shown once. Inconclusive results and toxic doses are left out.

The text below walks through data of PubChem BioAssay AID248 (DTP/NCI, 2004).

The experiment relates to L1210 leukemia ip in BDF1 mice, survival T/C. Put plainly: NCI In Vivo Anticancer Drug Screen. Data for tumor model L1210 Leukemia (intraperitoneal) in B6D2F1 (BDF1) mice. To be noted: endpoint: mean survival time, higher = longer survival. Put shortly:
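Tumor was transplanted into mice, which were then dosed with test compound or vehicle alone. Survival was recorded for each group, and the treated figure was expressed relative to the control figure.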

Where [1] appears, read: dose: 25.0 mg/kg/injection, schedule: Q01DX Z (ip), vehicle: saline.
Where [2] appears, read: dose: 50.0 mg/kg/injection, schedule: Q01DX009 (ip), vehicle: saline.
[3] abbreviates: dose: 50.0 mg/kg/injection, schedule: Q01DX Z (ip), vehicle: saline.
The mark [4] stands for this setting: dose: 100.0 mg/kg/injection, schedule: Q01DX001 (ip), vehicle: saline.
Setting [5] is: dose: 100.0 mg/kg/injection, schedule: Q01DX009 (ip), vehicle: saline.
Where [6] appears, read: dose: 200.0 mg/kg/injection, schedule: Q01DX001 (ip), vehicle: saline.
Setting [7] is: dose: 100.0 mg/kg/injection, schedule: Q01DX009 (ip), vehicle: saline with Tween-80.
Where [8] appears, read: dose: 200.0 mg/kg/injection, schedule: Q01DX009 (ip), vehicle: saline with Tween-80.

With `CC1(CNC(=O)C(=O)NCC2(C)CO2)CO1` (configuration not stated), the T/C is 98 % of control (dose: 15.0 mg/kg/injection, schedule: Q01DX009 (ip), vehicle: acetone); 98 % of control (dose: 23.0 mg/kg/injection, schedule: Q01DX009 (ip), vehicle: acetone); 121 % of control under setting [1]; 120 % of control (dose: 40.0 mg/kg/injection, schedule: Q01DX Z (ip), vehicle: other); 101 % of control (dose: 50.0 mg/kg/injection, schedule: Q01DX001 (ip), vehicle: saline); 124 % of control under setting [2]. The T/C is 116 % of control under setting [3]; 124 % of control (dose: 50.0 mg/kg/injection, schedule: Q04DX003 (ip), vehicle: saline); 123 % of control (dose: 100.0 mg/kg/injection, schedule: Q01DX001 (ip), vehicle: acetone); 110 % of control and 113 % of control under setting [4]; 150 % of control under setting [5]; 96 % of control (dose: 100.0 mg/kg/injection, schedule: Q01DX Z (ip), vehicle: other). Further, the T/C by setting is: (dose: 132.0 mg/kg/injection, schedule: Q04DX003 (ip), vehicle: saline) 117 % of control; (dose: 150.0 mg/kg/injection, schedule: Q01DX009 (ip), vehicle: saline) 157 % of control and 163 % of control; (dose: 150.0 mg/kg/injection, schedule: Q01DX Z (ip), vehicle: carboxymethylcellulose (CMC)) 121 % of control; (dose: 200.0 mg/kg/injection, schedule: Q01DX001 (ip), vehicle: acetone) 119 % of control; under setting [6], 120 % of control; (dose: 200.0 mg/kg/injection, schedule: Q04DX003 (ip), vehicle: saline) 157 % of control and 166 % of control. The T/C (dose: 225.0 mg/kg/injection, schedule: Q01DX009 (ip), vehicle: saline) is 180 % of control; the T/C (dose: 225.0 mg/kg/injection, schedule: Q01DX Z (ip), vehicle: carboxymethylcellulose (CMC)) is 96 % of control; the T/C (dose: 300.0 mg/kg/injection, schedule: Q01DX009 (ip), vehicle: saline) is 94 % of control; the T/C (dose: 300.0 mg/kg/injection, schedule: Q04DX003 (ip), vehicle: saline) is 158 % of control and 189 % of control; the T/C (dose: 338.0 mg/kg/injection, schedule: Q01DX Z (ip), vehicle: other) was 106 % of control; the T/C (dose: 400.0 mg/kg/injection, schedule: Q01DX001 (ip), vehicle: acetone) is 204 % of control.
As to `COc1cc(/C=C(/C)[N+](=O)[O-])c([N+](=O)[O-])cc1OC`, the T/C is 98 % of control under setting [4] and 90 % of control under setting [6].
Regarding `CC(CCC(=O)O)Cc1ccccc1` (configuration not stated), the T/C is 101 % of control (dose: 25.0 mg/kg/injection, schedule: Q01DX009 (ip), vehicle: saline); 101 % of control under setting [2]; 86 % of control under setting [5].
For `O=C(CCc1ccccc1)c1ccccc1`, the T/C reads like this: (dose: 100.0 mg/kg/injection, schedule: Q04DX002 (ip), vehicle: saline with Tween-80) 97 % of control; (dose: 200.0 mg/kg/injection, schedule: Q04DX002 (ip), vehicle: saline with Tween-80) 97 % of control; (dose: 400.0 mg/kg/injection, schedule: Q04DX002 (ip), vehicle: saline with Tween-80) 90 % of control.
As to `COC(=O)c1ccc(O)c([N+](=O)[O-])c1`, the T/C (dose: 50.0 mg/kg/injection, schedule: Q01DX009 (ip), vehicle: saline with Tween-80) is 103 % of control; the T/C under setting [7] was 94 % of control; the T/C under setting [8] was 89 % of control.
On to `Cc1ccc(Nc2cc(=S)nc(N)[nH]2)cc1C`, for which the T/C is 103 % of control (dose: 100.0 mg/kg/injection, schedule: Q01DX Z (ip), vehicle: methylcellulose (MC)) and 95 % of control (dose: 200.0 mg/kg/injection, schedule: Q01DX Z (ip), vehicle: methylcellulose (MC)).
`CCC1=C(c2ccc(OC)cc2)CCC(C(=O)O)C1C` (configuration not stated): the T/C reads like this: (dose: 6.0 mg/kg/injection, schedule: Q01DX Z (ip), vehicle: saline) 100 % of control; (dose: 12.0 mg/kg/injection, schedule: Q01DX Z (ip), vehicle: saline) 96 % of control; under setting [1], 102 % of control; under setting [3], 100 % of control; (dose: 100.0 mg/kg/injection, schedule: Q01DX Z (ip), vehicle: saline) 102 % of control; (dose: 200.0 mg/kg/injection, schedule: Q01DX Z (ip), vehicle: saline) 100 % of control. In addition, the T/C runs as follows: (dose: 400.0 mg/kg/injection, schedule: Q01DX Z (ip), vehicle: saline) 110 % of control; (dose: 800.0 mg/kg/injection, schedule: Q01DX Z (ip), vehicle: saline) 98 % of control and 120 % of control.
For the compound `CCOC(=O)Nc1cccc([N+](=O)[O-])c1`, the T/C reads like this: (dose: 100.0 mg/kg/injection, schedule: Q04DX003 (ip), vehicle: other) 93 % of control; (dose: 200.0 mg/kg/injection, schedule: Q04DX003 (ip), vehicle: other) 102 % of control; (dose: 400.0 mg/kg/injection, schedule: Q04DX003 (ip), vehicle: other) 91 % of control.
For the compound `O=C1C=Cc2ccccc2C1=O`, the T/C was 103 % of control (dose: 0.78 mg/kg/injection, schedule: Q01DX001 (ip), vehicle: Klucel (hydroxypropylcellulose) (HPC)); 95 % of control (dose: 1.56 mg/kg/injection, schedule: Q01DX001 (ip), vehicle: Klucel (hydroxypropylcellulose) (HPC)); 88 % of control (dose: 3.13 mg/kg/injection, schedule: Q01DX001 (ip), vehicle: Klucel (hydroxypropylcellulose) (HPC)).
As to `Cc1c2cc[nH]c(C(F)(F)F)c2cc2c1nc1ccccc12`, the T/C reads like this: (dose: 16.0 mg/kg/injection, schedule: Q01DX005 (ip), vehicle: saline) 101 % of control; (dose: 32.0 mg/kg/injection, schedule: Q01DX005 (ip), vehicle: saline) 103 % of control; (dose: 64.0 mg/kg/injection, schedule: Q01DX005 (ip), vehicle: saline) 103 % of control; (dose: 128.0 mg/kg/injection, schedule: Q01DX005 (ip), vehicle: saline) 103 % of control.
As to `CC12CCC3C(C1)C(C(=O)O2)C(=O)OC3(C)C` (configuration not stated), the T/C (dose: 75.0 mg/kg/injection, schedule: Q01DX009 (ip), vehicle: Klucel (hydroxypropylcellulose) (HPC)) was 99 % of control and the T/C (dose: 150.0 mg/kg/injection, schedule: Q01DX009 (ip), vehicle: Klucel (hydroxypropylcellulose) (HPC)) is 101 % of control.
In the case of `CCN(CC)CCN1C(=O)C(C)C=C(C)C=C1C` (configuration not stated), the T/C was 97 % of control (dose: 9.0 mg/kg/injection, schedule: Q04DX003 (ip), vehicle: other); 92 % of control (dose: 18.0 mg/kg/injection, schedule: Q04DX003 (ip), vehicle: other); 105 % of control (dose: 19.0 mg/kg/injection, schedule: Q01DX009 (ip), vehicle: other); 105 % of control (dose: 38.0 mg/kg/injection, schedule: Q01DX009 (ip), vehicle: other); 100 % of control (dose: 75.0 mg/kg/injection, schedule: Q01DX001 (ip), vehicle: other); 105 % of control (dose: 75.0 mg/kg/injection, schedule: Q01DX009 (ip), vehicle: other). In addition, the T/C (dose: 75.0 mg/kg/injection, schedule: Q04DX003 (ip), vehicle: other) was 91 % of control.
As to `Nc1ccc(C(=O)O)c(O)c1`, the T/C runs as follows: (dose: 37.88 mg/kg/injection, schedule: Q01DX Z (ip), vehicle: carboxymethylcellulose (CMC)) 105 % of control; (dose: 75.75 mg/kg/injection, schedule: Q01DX Z (ip), vehicle: carboxymethylcellulose (CMC)) 96 % of control; (dose: 100.0 mg/kg/injection, schedule: Q01DX001 (ip), vehicle: carboxymethylcellulose (CMC)) 97 % of control; under setting [7], 104 % of control; (dose: 100.0 mg/kg/injection, schedule: Q04DX003 (ip), vehicle: saline with Tween-80) 96 % of control and 97 % of control; (dose: 151.5 mg/kg/injection, schedule: Q01DX Z (ip), vehicle: carboxymethylcellulose (CMC)) 96 % of control. The T/C (dose: 200.0 mg/kg/injection, schedule: Q01DX001 (ip), vehicle: carboxymethylcellulose (CMC)) is 97 % of control; the T/C under setting [8] was 97 % of control; the T/C (dose: 200.0 mg/kg/injection, schedule: Q04DX003 (ip), vehicle: saline with Tween-80) was 95 % of control and 103 % of control; the T/C (dose: 303.0 mg/kg/injection, schedule: Q01DX Z (ip), vehicle: carboxymethylcellulose (CMC)) was 95 % of control; the T/C (dose: 400.0 mg/kg/injection, schedule: Q01DX001 (ip), vehicle: carboxymethylcellulose (CMC)) is 89 % of control; the T/C (dose: 400.0 mg/kg/injection, schedule: Q01DX009 (ip), vehicle: saline with Tween-80) was 95 % of control. The T/C (dose: 400.0 mg/kg/injection, schedule: Q04DX003 (ip), vehicle: saline with Tween-80) is 95 % of control and 101 % of control.
